≈ marks a conversion by molar mass, not a printed value.
Assays:
Format in all cases: cell-based
[1] = system: Staphylococcus aureus FDA 209PJc-1; experiment: Antibacterial activity, agar-dilution MIC, organism No. 1; conditions: Staphylococcus aureus, FDA209PJC1; Organism No. 1, bouillon-agar; read-out: Minimum Inhibitory Concentration
How it was run: (§1)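 An agar-dilution procedure on bouillon-agar medium was applied, and each MIC was recorded as micrograms of specimen per ml of medium.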

[2] = system: Staphylococcus aureus Terajima; experiment: Antibacterial activity, agar-dilution MIC, organism No. 2; conditions: Staphylococcus aureus; Organism No. 2, bouillon-agar; read-out: Minimum Inhibitory Concentration
How it was run: as §1

[3] = system: Staphylococcus aureus MS 353; experiment: Antibacterial activity, agar-dilution MIC, organism No. 3; conditions: Staphylococcus aureus, MS353; Organism No. 3, bouillon-agar; read-out: Minimum Inhibitory Concentration
How it was run: as §1

[4] = system: Streptococcus pyogenes Cook; experiment: Antibacterial activity, agar-dilution MIC, organism No. 4; conditions: Streptococcus pyogenes; Organism No. 4, bouillon-agar; read-out: Minimum Inhibitory Concentration
How it was run: as §1

[5] = system: Escherichia coli NIHJ-JC-2; experiment: Antibacterial activity, agar-dilution MIC, organism No. 5; conditions: Escherichia coli, NIHJJC2; Organism No. 5, bouillon-agar; read-out: Minimum Inhibitory Concentration
How it was run: as §1

[6] = system: Escherichia coli K12 C600 IAM 1264; experiment: Antibacterial activity, agar-dilution MIC, organism No. 6; conditions: Escherichia coli, IAM1264; Organism No. 6, bouillon-agar; read-out: Minimum Inhibitory Concentration
How it was run: as §1

[7] = system: Klebsiella pneumoniae PCI-602; experiment: Antibacterial activity, agar-dilution MIC, organism No. 7; conditions: Klebsiella pneumoniae, PCI602; Organism No. 7, bouillon-agar; read-out: Minimum Inhibitory Concentration
How it was run: as §1

[8] = system: Salmonella typhimurium IID 971; experiment: Antibacterial activity, agar-dilution MIC, organism No. 8; conditions: Salmonella enterica; Organism No. 8, bouillon-agar; read-out: Minimum Inhibitory Concentration
How it was run: as §1

Salmonella typhi 901 = experiment: Antibacterial activity, agar-dilution MIC, organism No. 9; conditions: Salmonella enterica, TYPHI, read-out: Minimum Inhibitory Concentration
How it was run: as §1

[9] = system: Salmonella paratyphi-A 1015; experiment: Antibacterial activity, agar-dilution MIC, organism No. 10; conditions: Salmonella enterica, PARATYPHI, read-out: Minimum Inhibitory Concentration
How it was run: as §1

[10] = system: Salmonella shottmuelleri 8006; experiment: Antibacterial activity, agar-dilution MIC, organism No. 11; conditions: Salmonella, 8006; Organism No. 11, bouillon-agar; read-out: Minimum Inhibitory Concentration
How it was run: as §1

[11] = system: Salmonella enteritidis G 14; experiment: Antibacterial activity, agar-dilution MIC, organism No. 12; conditions: Salmonella enterica, ENTERITIDIS; Organism No. 12, bouillon-agar; read-out: Minimum Inhibitory Concentration
How it was run: as §1

[12] = system: Serratia marcescens IAM 1184; experiment: Antibacterial activity, agar-dilution MIC, organism No. 13; conditions: Serratia marcescens, IAM1184; Organism No. 13, bouillon-agar; read-out: Minimum Inhibitory Concentration
Source text: Agar-dilution method was used for determination of the antibacterial activity and antifungal activity while using bouillon-agar culture medium, and the minimum inhibitory concentration of the specimen was expressed by μg/ml of the culture medium.

[13] = system: Bacillus subtilis ATCC 6633; experiment: Antibacterial activity, agar-dilution MIC, organism No. 14; conditions: Bacillus subtilis, ATCC6633; Organism No. 14, bouillon-agar; read-out: Minimum Inhibitory Concentration
How it was run: as §1

[14] = system: Pseudomonas aeruginosa IFO 3445; experiment: Antibacterial activity, agar-dilution MIC, organism No. 15; conditions: Pseudomonas aeruginosa, IFO3445; Organism No. 15, bouillon-agar; read-out: Minimum Inhibitory Concentration
How it was run: as §1

[15] = system: Pseudomonas aeruginosa NCTC 10490; experiment: Antibacterial activity, agar-dilution MIC, organism No. 16; conditions: Pseudomonas aeruginosa, NCTC10490; Organism No. 16, bouillon-agar; read-out: Minimum Inhibitory Concentration
How it was run: as §1

[16] = system: Pseudomonas aeruginosa PAO 1; experiment: Antibacterial activity, agar-dilution MIC, organism No. 17; conditions: Pseudomonas aeruginosa, PAO1; Organism No. 17, bouillon-agar; read-out: Minimum Inhibitory Concentration
How it was run: as §1

[17] = system: Proteus morganii IFO 3848; experiment: Antibacterial activity, agar-dilution MIC, organism No. 18; conditions: Morganella morganii, IFO3848; Organism No. 18, bouillon-agar; read-out: Minimum Inhibitory Concentration
How it was run: as §1

[18] = system: Proteus mirabilis IFO 3849; experiment: Antibacterial activity, agar-dilution MIC, organism No. 19; conditions: Proteus mirabilis, IFO3849; Organism No. 19, bouillon-agar; read-out: Minimum Inhibitory Concentration
How it was run: as §1

Proteus vulgaris OX-19 = experiment: Antibacterial activity, agar-dilution MIC, organism No. 20; conditions: Proteus vulgaris, OX19; Organism No. 20, bouillon-agar; read-out: Minimum Inhibitory Concentration
How it was run: as §1

Proteus vulgaris HX-19 = experiment: Antibacterial activity, agar-dilution MIC, organism No. 21; conditions: Proteus vulgaris, HX19; Organism No. 21, bouillon-agar; read-out: Minimum Inhibitory Concentration
How it was run: as §1

[19] = system: Proteus rettgeri IFO 3850; experiment: Antibacterial activity, agar-dilution MIC, organism No. 22; conditions: Providencia rettgeri, IFO3850; Organism No. 22, bouillon-agar; read-out: Minimum Inhibitory Concentration
How it was run: as §1

[20] = system: Enterobacter aerogenes ATCC 13048; experiment: Antibacterial activity, agar-dilution MIC, organism No. 23; conditions: Klebsiella aerogenes, ATCC13048; Organism No. 23, bouillon-agar; read-out: Minimum Inhibitory Concentration
How it was run: as §1

Enterobacter cloacae 963 = experiment: Antibacterial activity, agar-dilution MIC, organism No. 24; conditions: Enterobacter cloacae, 963; Organism No. 24, bouillon-agar; read-out: Minimum Inhibitory Concentration
How it was run: as §1

[21] = system: Micrococcus luteus ATCC 9341; experiment: Antibacterial activity, agar-dilution MIC, organism No. 25; conditions: Micrococcus luteus, ATCC9341; Organism No. 25, bouillon-agar; read-out: Minimum Inhibitory Concentration
How it was run: as §1

[22] = system: Streptococcus pyogenes IFO 3340; experiment: Antibacterial activity, agar-dilution MIC, organism No. 26; conditions: Streptococcus pyogenes, IFO3340; Organism No. 26, bouillon-agar; read-out: Minimum Inhibitory Concentration
How it was run: as §1

[23] = system: Streptococcus faecium IFO 3826; experiment: Antibacterial activity, agar-dilution MIC, organism No. 27; conditions: Enterococcus faecium, IFO3826; Organism No. 27, bouillon-agar; read-out: Minimum Inhibitory Concentration
How it was run: as §1

[24] = system: Mycoplasma pneumoniae IID817; experiment: Antimycoplasmal activity, MIC by phenol red colour change, organism No. 28; conditions: Mycoplasma, IID817; Organism No. 28, PPLO broth + 1% glucose, 37° C.; read-out: Minimum Inhibitory Concentration (MIC)
Protocol: Mycoplasma pneumoniae IID817 was used as the test microorganism in a culture medium prepared by adding 1% of glucose to "PPLO broth (manufactured by Difco Co.) liquid culture medium" at 37° C. with phenol red as an indicator, thereby culturing the test microorganism.

[25] = system: Candida albicans IAM 4905; experiment: Antifungal activity, agar-dilution MIC, organism No. 29; conditions: Candida albicans, IAM4905; Organism No. 29, bouillon-agar; read-out: Minimum Inhibitory Concentration
How it was run: as §1

[26] = system: Aspergillus niger IFO 6342; experiment: Antifungal activity, agar-dilution MIC, organism No. 30; conditions: Aspergillus niger, IFO6342; Organism No. 30, bouillon-agar; read-out: Minimum Inhibitory Concentration
How it was run: as §1

Row | SMILES | MIC [1] | MIC [2] | MIC [3] | MIC [4] | MIC [5] | MIC [6] | MIC [7] | MIC [8] | MIC (Salmonella typhi 901) | MIC [9] | MIC [10] | MIC [11] | MIC [12] | MIC [13] | MIC [14] | MIC [15] | MIC [16] | MIC [17] | MIC [18] | MIC (Proteus vulgaris OX-19) | further results
1 | [C-]#[N+]C12CC3(/C=C/C(=O)OCC(=O)c4ccc(Cl)cc4)OC3C1O2 (stereo not shown) [compound 5] | 0.05 µg/mL (≈ 0.145 µM) | 0.78 µg/mL (≈ 2.26 µM) | 0.78 µg/mL (≈ 2.26 µM) | 12.5 µg/mL (≈ 36.2 µM) | 6.25 µg/mL (≈ 18.1 µM) | < 0.05 µg/mL | 6.25 µg/mL (≈ 18.1 µM) | 6.25 µg/mL (≈ 18.1 µM) | 3.13 µg/mL (≈ 9.05 µM) | < 0.05 µg/mL | < 0.05 µg/mL | 3.13 µg/mL (≈ 9.05 µM) | > 100 µg/mL | 12.5 µg/mL (≈ 36.2 µM) | > 100 µg/mL | > 100 µg/mL | > 100 µg/mL | 100 µg/mL (≈ 289 µM) | 100 µg/mL (≈ 289 µM) | 0.39 µg/mL (≈ 1.13 µM) | MIC (Proteus vulgaris HX-19): 0.39 µg/mL (≈ 1.13 µM); MIC [19]: 100 µg/mL (≈ 289 µM); MIC [20]: 100 µg/mL (≈ 289 µM); MIC (Enterobacter cloacae 963): 0.1 µg/mL (≈ 0.289 µM); MIC [21]: < 0.05 µg/mL; MIC [22]: 1.56 µg/mL (≈ 4.51 µM); MIC [23]: 12.5 µg/mL (≈ 36.2 µM); MIC [24]: < 0.05 µg/mL; MIC [25]: 1.56 µg/mL (≈ 4.51 µM); MIC [26]: 6.25 µg/mL (≈ 18.1 µM)
2 | [C-]#[N+]C12CC3(/C=C/C(=O)N4CCCC4)OC3C1O2 (stereo not shown) [compound 21] | 50 µg/mL (≈ 203 µM) | 100 µg/mL (≈ 406 µM) | 50 µg/mL (≈ 203 µM) | 100 µg/mL (≈ 406 µM) | > 200 µg/mL | > 200 µg/mL | 50 µg/mL (≈ 203 µM) | 100 µg/mL (≈ 406 µM) | 50 µg/mL (≈ 203 µM) | 100 µg/mL (≈ 406 µM) | 50 µg/mL (≈ 203 µM) | 50 µg/mL (≈ 203 µM) | > 200 µg/mL | 200 µg/mL (≈ 812 µM) | > 200 µg/mL | > 200 µg/mL | > 200 µg/mL | 50 µg/mL (≈ 203 µM) | > 200 µg/mL | 25 µg/mL (≈ 102 µM) | MIC (Proteus vulgaris HX-19): 1.56 µg/mL (≈ 6.33 µM); MIC [19]: > 200 µg/mL; MIC [20]: > 200 µg/mL; MIC (Enterobacter cloacae 963): > 200 µg/mL; MIC [21]: 0.39 µg/mL (≈ 1.58 µM); MIC [22]: > 200 µg/mL; MIC [23]: > 200 µg/mL; MIC [24]: 1.56 µg/mL; MIC [25]: 6.25 µg/mL (≈ 25.4 µM); MIC [26]: 3.13 µg/mL (≈ 12.7 µM)
3 | [C-]#[N+]C12CC3(/C=C/C(=O)NC4=NCCS4)OC3C1O2 (stereo not shown) [compound 66] | 12.5 µg/mL (≈ 45.1 µM) | 25 µg/mL (≈ 90.2 µM) | 12.5 µg/mL (≈ 45.1 µM) | 12.5 µg/mL (≈ 45.1 µM) | 25 µg/mL (≈ 90.2 µM) | 50 µg/mL (≈ 180 µM) | 6.25 µg/mL (≈ 22.5 µM) | 25 µg/mL (≈ 90.2 µM) | 6.25 µg/mL (≈ 22.5 µM) | 12.5 µg/mL (≈ 45.1 µM) | 12.5 µg/mL (≈ 45.1 µM) | 6.25 µg/mL (≈ 22.5 µM) | > 200 µg/mL | 25 µg/mL (≈ 90.2 µM) | > 200 µg/mL | > 200 µg/mL | > 200 µg/mL | 3.13 µg/mL (≈ 11.3 µM) | 200 µg/mL (≈ 721 µM) | 3.13 µg/mL (≈ 11.3 µM) | MIC (Proteus vulgaris HX-19): 3.13 µg/mL (≈ 11.3 µM); MIC [19]: > 200 µg/mL; MIC [20]: > 200 µg/mL; MIC (Enterobacter cloacae 963): > 200 µg/mL; MIC [21]: 0.1 µg/mL (≈ 0.361 µM); MIC [24]: < 0.2 µg/mL; MIC [25]: 25 µg/mL (≈ 90.2 µM); MIC [26]: 50 µg/mL (≈ 180 µM)
